Measured values published in ChEMBL document CHEMBL1743341, “Cytochrome p450 enzymes mechanism based inhibitors: common sub-structures and reactivity” (Curr Drug Metab, 2005).
Entries after “also recorded” stand apart in the source; their conditions may differ.

What was measured:
Cytochrome P450 3A4 [1] = biological target: T1, Cytochrome P450 3A4 (Homo sapiens, UniProt P08684); assay: Mechanism based inhibition of human cytochrome P450 3A4 measured by nifedipine oxidation, omeprazole 3-hydroxylation and omeprazole sulfoxydation; type: ADME
Cytochrome P450 3A4 [2] = biological target: T1, Cytochrome P450 3A4; assay: Mechanism based inhibition of human cytochrome P450 3A4 measured by testosterone 6-beta hydroxylation; type: ADME
CYP1A2 = biological target: T2, CYP1A2 (Homo sapiens, UniProt P05177); assay: (§1) Mechanism based inhibition of human cytochrome P450 1A2 measured by phenacetin O-deethylation (POD); type: ADME; settings: human, probe phenacetin (O-deethylation, POD)
T2 sequence (P05177 whole entry): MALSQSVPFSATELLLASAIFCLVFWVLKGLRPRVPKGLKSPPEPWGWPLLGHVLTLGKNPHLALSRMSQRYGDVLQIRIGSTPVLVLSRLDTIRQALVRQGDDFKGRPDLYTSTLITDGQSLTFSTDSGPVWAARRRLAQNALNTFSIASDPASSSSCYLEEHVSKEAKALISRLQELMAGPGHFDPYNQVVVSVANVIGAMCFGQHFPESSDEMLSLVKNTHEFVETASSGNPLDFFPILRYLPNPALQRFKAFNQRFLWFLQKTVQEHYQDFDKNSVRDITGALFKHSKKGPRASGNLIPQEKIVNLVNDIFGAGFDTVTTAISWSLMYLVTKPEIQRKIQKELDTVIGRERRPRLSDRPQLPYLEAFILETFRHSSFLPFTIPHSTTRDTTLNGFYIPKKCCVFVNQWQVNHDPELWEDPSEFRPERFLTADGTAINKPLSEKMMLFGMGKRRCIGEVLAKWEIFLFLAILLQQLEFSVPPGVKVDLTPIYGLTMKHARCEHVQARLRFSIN

Cytochrome P450 1A2 [3] = biological target: T3, Cytochrome P450 1A2 (Homo sapiens, UniProt P05177); assay: as §1; type: ADME
T3 sequence (P05177 whole entry): T2 sequence (P05177 whole entry)

Cytochrome P450 2C11 = biological target: T4, Cytochrome P450 2C11 (Rattus norvegicus, UniProt P08683); assay: Mechanism based inhibition of rat cytochrome P450 CYP2C11 measured by 2-alpha and 16-alpha hydroxylation of testosterone; type: ADME
T4 sequence (P08683 whole entry): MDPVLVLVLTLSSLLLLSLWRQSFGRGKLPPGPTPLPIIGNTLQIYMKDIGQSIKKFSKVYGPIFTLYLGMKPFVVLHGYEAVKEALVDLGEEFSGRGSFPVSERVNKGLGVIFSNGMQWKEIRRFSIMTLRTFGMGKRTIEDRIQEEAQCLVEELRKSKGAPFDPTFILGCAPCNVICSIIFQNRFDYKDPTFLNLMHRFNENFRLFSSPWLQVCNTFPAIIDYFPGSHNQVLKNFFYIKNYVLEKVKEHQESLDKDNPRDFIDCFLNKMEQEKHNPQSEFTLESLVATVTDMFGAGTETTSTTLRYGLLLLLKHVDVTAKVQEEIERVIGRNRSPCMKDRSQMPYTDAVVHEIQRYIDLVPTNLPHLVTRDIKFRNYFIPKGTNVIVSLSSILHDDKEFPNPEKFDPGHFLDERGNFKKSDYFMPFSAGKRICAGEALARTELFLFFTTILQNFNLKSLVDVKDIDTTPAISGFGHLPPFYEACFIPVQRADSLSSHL

Cytochrome P450 2C8 = biological target: T5, Cytochrome P450 2C8 (Homo sapiens, UniProt P10632)
T5 sequence (P10632 whole entry): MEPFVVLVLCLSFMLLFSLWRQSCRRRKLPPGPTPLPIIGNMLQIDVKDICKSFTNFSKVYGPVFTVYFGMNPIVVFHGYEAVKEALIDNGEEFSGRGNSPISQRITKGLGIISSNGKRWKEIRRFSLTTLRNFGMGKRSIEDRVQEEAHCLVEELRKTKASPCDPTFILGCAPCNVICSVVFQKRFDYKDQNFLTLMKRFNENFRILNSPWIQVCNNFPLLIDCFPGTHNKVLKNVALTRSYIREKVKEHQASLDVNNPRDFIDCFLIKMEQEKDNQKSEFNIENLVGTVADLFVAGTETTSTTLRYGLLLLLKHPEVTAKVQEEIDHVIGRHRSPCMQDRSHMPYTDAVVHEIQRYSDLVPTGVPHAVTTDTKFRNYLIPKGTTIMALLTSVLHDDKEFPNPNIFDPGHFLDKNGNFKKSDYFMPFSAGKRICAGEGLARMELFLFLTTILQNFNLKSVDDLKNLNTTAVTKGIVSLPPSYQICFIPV
Description: (§3) Mechanism based inhibition of human cytochrome P450 2C8 measured by paclitaxel hydroxylation using a recombinant system

CYP2C8 = biological target: T6, CYP2C8 (Homo sapiens, UniProt P10632); assay: in vitro; settings: recombinant CYP2C8, probe paclitaxel
T6 sequence (P10632 whole entry): T5 sequence (P10632 whole entry)
Description: as §3

Cytochrome P450 3A4 [4] = biological target: T1, Cytochrome P450 3A4; assay: Mechanism based inhibition of human cytochrome P450 3A4, partition ratio; type: ADME
Cytochrome P450 1A1 = biological target: T7, Cytochrome P450 1A1 (Homo sapiens, UniProt P04798); assay: Mechanism based inhibition of human cytochrome P450 1A1 measured by 7-ethoxyresorufin O-deethylation (EROD); type: ADME
T7 sequence (P04798 whole entry): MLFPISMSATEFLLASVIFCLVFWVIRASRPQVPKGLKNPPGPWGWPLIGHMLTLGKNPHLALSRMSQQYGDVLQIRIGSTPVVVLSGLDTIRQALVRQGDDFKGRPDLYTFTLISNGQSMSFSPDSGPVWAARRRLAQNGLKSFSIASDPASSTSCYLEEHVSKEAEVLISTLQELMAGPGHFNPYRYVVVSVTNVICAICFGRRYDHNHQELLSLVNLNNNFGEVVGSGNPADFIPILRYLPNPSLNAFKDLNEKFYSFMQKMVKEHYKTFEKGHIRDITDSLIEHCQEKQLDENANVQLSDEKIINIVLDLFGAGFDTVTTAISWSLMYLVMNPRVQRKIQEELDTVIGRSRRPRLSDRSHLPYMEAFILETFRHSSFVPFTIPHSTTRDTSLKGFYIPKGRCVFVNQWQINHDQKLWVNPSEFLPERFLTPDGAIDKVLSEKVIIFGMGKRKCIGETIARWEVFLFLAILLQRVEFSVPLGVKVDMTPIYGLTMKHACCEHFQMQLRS

Cytochrome P450 2C9 = Cytochrome P450 2C9 (Homo sapiens, UniProt P11712); assay: Mechanism based inhibition of human cytochrome P450 2C9 measured by diclofenac 4-hydroxylation; type: ADME
Cytochrome P450 1A2 [5] = biological target: T3, Cytochrome P450 1A2; assay: Mechanism based inhibition of human cytochrome P450 1A2 measured by 7-ethoxyresorufin O-deethylation (EROD); type: ADME
Cytochrome P450 3A5 = Cytochrome P450 3A5 (Homo sapiens, UniProt P20815); assay: Mechanism based inhibition of human cytochrome P450 3A5; type: ADME
Cytochrome P450 2B1 [6] = biological target: T8, Cytochrome P450 2B1 (Rattus norvegicus, UniProt P00176); assay: Mechanism based inhibition of rat cytochrome P450 CYP2B1; type: ADME; settings: rat
T8 sequence (P00176 whole entry): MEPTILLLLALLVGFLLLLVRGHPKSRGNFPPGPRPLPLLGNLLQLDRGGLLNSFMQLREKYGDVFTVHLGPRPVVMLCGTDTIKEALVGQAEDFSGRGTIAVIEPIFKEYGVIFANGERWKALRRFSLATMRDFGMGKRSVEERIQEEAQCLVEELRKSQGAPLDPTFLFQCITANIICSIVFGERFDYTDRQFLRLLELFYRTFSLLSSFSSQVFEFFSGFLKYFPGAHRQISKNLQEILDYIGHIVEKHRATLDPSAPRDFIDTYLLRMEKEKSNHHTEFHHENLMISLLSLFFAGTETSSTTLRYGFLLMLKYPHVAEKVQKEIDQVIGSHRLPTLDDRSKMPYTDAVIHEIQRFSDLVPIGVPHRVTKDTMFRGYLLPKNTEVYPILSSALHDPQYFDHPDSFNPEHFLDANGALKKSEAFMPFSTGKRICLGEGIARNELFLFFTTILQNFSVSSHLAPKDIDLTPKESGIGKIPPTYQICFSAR

CYP2B1 = biological target: T9, CYP2B1 (Rattus norvegicus, UniProt P00176); assay: (§2) Mechanism based inhibition of rat cytochrome P450 CYP2B1 measured by 7-EFC O-deethylation activity; type: ADME; settings: rat, probe 7-EFC (O-deethylation)
T9 sequence (P00176 whole entry): T8 sequence (P00176 whole entry)

Cytochrome P450 2B1 [7] = biological target: T8, Cytochrome P450 2B1; assay: as §2; type: ADME

T1 sequence (P08684 whole entry): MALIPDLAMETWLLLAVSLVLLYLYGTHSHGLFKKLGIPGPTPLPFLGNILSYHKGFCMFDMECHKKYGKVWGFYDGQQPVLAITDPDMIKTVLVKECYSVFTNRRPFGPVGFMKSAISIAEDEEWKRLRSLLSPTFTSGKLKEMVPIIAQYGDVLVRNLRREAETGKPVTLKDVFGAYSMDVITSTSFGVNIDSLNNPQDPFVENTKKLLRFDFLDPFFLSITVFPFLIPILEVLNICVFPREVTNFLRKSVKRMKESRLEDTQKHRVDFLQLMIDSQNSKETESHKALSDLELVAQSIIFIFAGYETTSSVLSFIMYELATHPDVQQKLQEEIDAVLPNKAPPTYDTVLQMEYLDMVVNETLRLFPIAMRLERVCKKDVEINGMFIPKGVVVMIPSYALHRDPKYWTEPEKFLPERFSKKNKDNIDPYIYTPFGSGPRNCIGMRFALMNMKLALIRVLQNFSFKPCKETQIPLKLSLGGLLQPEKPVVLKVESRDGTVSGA
Cytochrome P450 2C9, sequence (P11712 whole entry): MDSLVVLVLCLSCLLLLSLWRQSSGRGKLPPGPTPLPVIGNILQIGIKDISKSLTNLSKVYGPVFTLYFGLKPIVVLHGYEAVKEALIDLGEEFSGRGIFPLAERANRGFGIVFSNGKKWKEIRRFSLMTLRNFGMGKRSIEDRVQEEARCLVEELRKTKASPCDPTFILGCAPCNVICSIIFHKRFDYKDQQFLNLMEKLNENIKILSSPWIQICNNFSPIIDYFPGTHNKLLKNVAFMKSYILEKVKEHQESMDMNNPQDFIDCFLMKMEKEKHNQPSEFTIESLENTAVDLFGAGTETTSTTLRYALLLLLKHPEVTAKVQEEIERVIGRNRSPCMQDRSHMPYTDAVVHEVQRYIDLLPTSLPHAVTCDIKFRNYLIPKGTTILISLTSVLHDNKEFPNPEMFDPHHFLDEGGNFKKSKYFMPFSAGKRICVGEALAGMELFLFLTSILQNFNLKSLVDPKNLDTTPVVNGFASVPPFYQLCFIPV
Cytochrome P450 3A5, sequence (P20815 whole entry): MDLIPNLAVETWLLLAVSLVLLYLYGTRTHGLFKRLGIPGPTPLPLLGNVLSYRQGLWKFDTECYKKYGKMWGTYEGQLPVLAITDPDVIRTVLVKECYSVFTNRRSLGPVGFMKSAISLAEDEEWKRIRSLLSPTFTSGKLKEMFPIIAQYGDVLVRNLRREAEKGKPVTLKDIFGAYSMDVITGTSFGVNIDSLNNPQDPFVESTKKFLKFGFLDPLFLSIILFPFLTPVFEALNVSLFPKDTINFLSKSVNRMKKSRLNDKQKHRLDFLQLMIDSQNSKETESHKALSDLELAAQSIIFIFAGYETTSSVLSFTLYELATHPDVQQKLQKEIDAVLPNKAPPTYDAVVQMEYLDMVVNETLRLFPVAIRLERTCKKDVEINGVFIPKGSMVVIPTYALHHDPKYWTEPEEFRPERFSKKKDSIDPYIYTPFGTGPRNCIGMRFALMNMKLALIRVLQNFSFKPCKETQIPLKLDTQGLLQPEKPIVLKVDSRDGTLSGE

C/C(=C\COc1c2ccoc2cc2oc(=O)ccc12)CCC(OC(C)(C)C(O)CC/C(C)=C/COc1c2ccoc2cc2oc(=O)ccc12)C(C)(C)O (stereo not drawn) [FC726]
Ki (Cytochrome P450 3A4 [1]): 0.13 µM | mechanism based inhibition (Cytochrome P450 3A4 [2]): Cytochrome P450 mechanistic inhibitor: PMID 10859150

CC(c1cc2ccccc2s1)N(O)C(N)=O (racemic) [ZILEUTON]
kinact (CYP1A2): 0.000583 s⁻¹ | Ki (Cytochrome P450 1A2 [3]): 117 µM

CNCCC=C1c2ccccc2CCc2ccccc21 [NORTRIPTYLINE]
mechanism based inhibition (Cytochrome P450 2C11): Cytochrome P450 mechanistic inhibitor: PMID 1435757; also recorded: Cytochrome P450 mechanistic inhibitor: PMID 14555335 | Ki (Cytochrome P450 2C8): 49.9 µM | kinact (CYP2C8): 0.0006 s⁻¹

CC(C)Nc1cccnc1N1CCN(C(=O)c2cc3cc(NS(C)(=O)=O)ccc3[nH]2)CC1 [DELAVIRDINE]
Partition ratio (Cytochrome P450 3A4 [4]): 41

CCOC(=O)C1=C(C)N=C(C)/C(=C(/O)OCC)C1CC (stereo not drawn)
mechanism based inhibition (Cytochrome P450 1A1): Cytochrome P450 mechanistic inhibitor: PMID 9107543 | mechanism based inhibition (Cytochrome P450 2C9): Cytochrome P450 mechanistic inhibitor: PMID 9107543 | mechanism based inhibition (Cytochrome P450 1A2 [5]): Cytochrome P450 mechanistic inhibitor: PMID 9107543 | mechanism based inhibition (Cytochrome P450 3A4 [2]): Cytochrome P450 mechanistic inhibitor: PMID 9107543

CC(C)(C)NC(=O)[C@@H]1C[C@@H]2CCCC[C@@H]2CN1C[C@@H](O)[C@H](Cc1ccccc1)NC(=O)[C@H](CC(N)=O)NC(=O)c1ccc2ccccc2n1
mechanism based inhibition (Cytochrome P450 3A5): Cytochrome P450 mechanistic inhibitor: PMID 15523003

CC(C)(OO)c1ccccc1 [CUMENE HYDROPEROXIDE]
mechanism based inhibition (Cytochrome P450 2B1 [6]): Cytochrome P450 mechanistic inhibitor: PMID 8416964

CNCCC(Oc1ccc(C(F)(F)F)cc1)c1ccccc1 (stereo not drawn) [FLUOXETINE]
mechanism based inhibition (Cytochrome P450 2C11): Cytochrome P450 mechanistic inhibitor: PMID 14555335

CNCCCN1c2ccccc2CCc2ccccc21 [DESIPRAMINE]
mechanism based inhibition (Cytochrome P450 2C11): Cytochrome P450 mechanistic inhibitor: PMID 14555335

C#CCN(C)CCCOc1ccc(Cl)cc1Cl [CLORGILINE]
kinact (CYP2B1): 0.00467 s⁻¹ | Ki (Cytochrome P450 2B1 [7]): 1.5 µM
